Reference: US20090181890A1, “Amylin and Amylin Agonists for Treating Psychiatric Diseases and Disorders” (Amylin Pharmaceuticals , Inc., priority 2006, published 2009)
One block for each compound: values may come before it.

How the values were obtained:
mice [1] = assay: marble burying; assay type: in vivo
Procedure: To confirm the interpretation of the findings outlined under Example 1, a variety of animal behavior assays were performed to test for anxiolytic, antidepressant, and antipsychotic effects of amylin administration. […] These specific behavioral tests are known to be sensitive to anxiolytic, antidepressant, or antipsychotic drugs. For these assays, rat amylin was administered to mice at doses ranging from 0.1 to 10 mg/kg, intraperitoneally or via a subcutaneously implanted osmotic pump (ALZET®) containing vehicle or rat amylin, and their performance in the assay was assessed.
Marble burying is used as a model for both anxiety and obsessive-compulsive disorder. See, for example, Chaki et al. (2003) J. Pharmacol. Exp. Ther. 304:818-826. Anxiolytics suppress marble burying activity. Mice were injected with the test agent (rat amylin at 0.1, 1.0 or 10 mg/kg, […] buspirone, or vehicle) 15-30 minutes prior to the test. Mice were then placed individually in clean cages containing 5-cm of hard wood bedding and 20 marbles spaced evenly in rows of five. The number of marbles buried in 30 minutes was recorded. […] Buspirone is a partial 5-HT1A agonist and an known anxiolytic agent.

[2] = compared to human amylin; cited from earlier work
treated test animals = settings: cited from earlier work
[3] = adsorption onto glass container in liquid form; assay type: physicochemical
mice [4] = assay: prepulse inhibition (PPI) test; assay type: in vivo; settings: amylin at 10 mg/kg, haloperidol at 1 mg/kg; all prepulse levels (74, 78, and 82 dB); FIG. 5
Excerpt: The prepulse inhibition (PPI) test measures the reflex response to externally applied auditory stimulation (acoustic startle response) and is related to the deficiency in sensory-motor gating capacity seen in schizophrenia. The acoustic startle reflex is a very basic response to strong exteroceptive stimuli and is widely used to assess sensorimotor reactivity in animals and humans. A weak auditory stimulus (prepulse, 74-82 dB) given prior to the strong acoustic stimulus (120 dB) blunts the startle response. This blunting of the startle response is referred to as prepulse inhibition. See, for example, Conti et al (2005) Behavioral Neuroscience 119: 1052-1060. Antipsychotics increase the ability of the prepulse stimulus to blunt the startle response to the strong stimulus. Some psychotomimetic agents, such as phencyclidine (PCP) and ketamine, can actually reduce the percent prepulse inhibition and stimulate a psychotic-like state in animals, which can be antagonized by antipsychotic agents.
Mice were injected with the test agent (rat amylin at 0.1, 1.0 or 10 mg/kg, or vehicle) […] prior to the test or with haloperidol at 1 mg/kg 30 minutes prior to the test. The mice were placed into an animal holder and the holder placed onto a transducer platform in an acoustic chamber. […] The amount of the animal's “reaction” to the strong stimulus was recorded. […]

[5] = weight gain induced by clozapine; assay type: in vivo, rats; settings: clozapine 0.025 and 0.25 mg/kg/day, s.c. osmotic pumps, 4 weeks; diet 58% kcal from fat; FIG. 7A
Procedure: The effect of amylin administration on weight gain induced by the second generation antipsychotic clozapine was examined. Adult, male Sprague-Dawley® rats (diet=58% kcal from fat) were implanted subcutaneously in the interscapular region with osmotic pumps that continuously delivered vehicle or drug for 4 weeks. In one experiment, rats were treated with vehicle or clozapine (0.025 and 0.25 mg/kg/day).

mice [6] = settings: mouse, in vivo
Procedure: The PCP-induced locomotion test is used with the open field activity chambers and measures locomotion, rearing, and stereotypic activity under amphetamine/PCP-induced conditions. The test has predictive validity for some antipsychotic drugs that normalize the hyperactivity and stereotypic behavior seen with amphetamine and PCP. See, for example, Williams et al. (2006) Prog. Neuropsychopharmacol. Biol. Psychiatry 30:239-243. Mice were injected with the test agent (rat amylin at 0.1, 1.0 or 10 mg/kg, 3 mg/kg clozapine (CZP), or vehicle) 15-30 minutes prior injection with 5 mg/kg PCP. The animals were then placed in the center of an open field and activity was recorded for 60 minutes. […] CZP is an atypical, second generation antipsychotic drug has a mixed receptor profile, including the dopamine receptor.

mice [7] = assay: novel object recognition; assay type: in vivo; settings: rolipram 0.1 mg/kg IP 30 minutes prior to training; test 24 hours later; FIG. 8
Procedure: Since cognitive impairment is associated with psychoses, the effect of amylin administration on novel object recognition was examined. The novel object recognition task was used to measure working memory. See, for example, Miyamoto et al (2005) J. Neuroscience 25:1826-1835. Generally, animals spend less time exploring a previously presented object and more time exploring a novel object when both are presented together. Mice were injected IP with the test agent (rat amylin at 1.0 or 10 mg/kg, 0.1 mg/kg rolipram, or vehicle) 30 minutes prior to the training session. In the training, the mouse was allowed to explore two novel objects placed in the center of an open field. The time spent exploring each object was recorded. The objects differed in color, shape, and texture. Twenty-four hours after the training session, the mouse was placed back in the same open field in which one of the now familiar objects used in the training session was replaced by a novel object. The time spent exploring each object was again recorded. The memory index (or discrimination index) is the time spent exploring the novel object over the total time spent exploring both the novel and familiar objects (times 100). Results of this assay are shown in FIG. 8 where * is P<0.05 vs. vehicle.

Compound: O=C1CC2(CCCC2)CC(=O)N1CCCCN1CCN(c2ncccn2)CC1 [buspirone]
reduction in marble burying, significance (mice [1]; amylin at 10 mg/kg, buspirone at 20 mg/kg, P<0.05): statistically significant
number of marbles buried in 30 minutes (mice [1]; rat amylin 0.1, 1.0 or 10 mg/kg, buspirone 20/kg, 15-30 minutes prior, FIG. 3): reduced the number of marbles buried

Compound: CC[C@H](C)[C@H](NC(=O)[C@@H]1CCCN1C(=O)CNC(=O)[C@H](Cc1ccccc1)NC(=O)[C@H](CC(N)=O)NC(=O)[C@H](CC(N)=O)NC(=O)[C@H](CO)NC(=O)[C@H](CO)NC(=O)[C@H](Cc1c[nH]cn1)NC(=O)[C@@H](NC(=O)[C@H](CC(C)C)NC(=O)[C@H](Cc1ccccc1)NC(=O)[C@H](CC(N)=O)NC(=O)[C@H](C)NC(=O)[C@H](CC(C)C)NC(=O)[C@H](CCCNC(=N)N)NC(=O)[C@H](CCC(N)=O)NC(=O)[C@@H](NC(=O)[C@H](C)NC(=O)[C@@H]1CSSC[C@H](NC(=O)[C@@H](N)CCCCN)C(=O)N[C@@H](CC(N)=O)C(=O)N[C@@H]([C@@H](C)O)C(=O)N[C@@H](C)C(=O)N[C@@H]([C@@H](C)O)C(=O)N1)[C@@H](C)O)C(C)C)C(=O)N[C@@H](CC(C)C)C(=O)N1CCC[C@H]1C(=O)N1CCC[C@H]1C(=O)N[C@H](C(=O)N[C@@H](CC(N)=O)C(=O)N[C@H](C(=O)NCC(=O)N[C@@H](CO)C(=O)N[C@@H](CC(N)=O)C(=O)N[C@H](C(=O)N[C@@H](Cc1ccc(O)cc1)C(N)=O)[C@@H](C)O)C(C)C)[C@@H](C)O [^25,28,29Pro-h-amylin]
stability characteristics [2]: more desirable
amylin activity in vivo (treated test animals): provoking marked hyperlactemia followed by hyperglycemia
tendency to adsorb onto glass [3]: does not have a tendency to adsorb onto the glass

Compound: ^18Arg^25,28Pro-h-amylin (KCNTATCATQRLANFLVRSSNNFGPILPSTNVGSNTY) [human amylin analog of formula I]
amylin activity in vivo (treated test animals): provoking marked hyperlactemia followed by hyperglycemia

Compound: des-^1Lys-h-amylin (CNTATCATQRLANFLVHSSNNFGAILSSTNVGSNTY) [human amylin analog of formula I]
amylin activity in vivo (treated test animals): provoking marked hyperlactemia followed by hyperglycemia

Compound: ^28Pro-h-amylin (KCNTATCATQRLANFLVHSSNNFGAILPSTNVGSNTY) [human amylin analog of formula I]
amylin activity in vivo (treated test animals): provoking marked hyperlactemia followed by hyperglycemia

Compound: O=C(CCCN1CCC(O)(c2ccc(Cl)cc2)CC1)c1ccc(F)cc1 [haloperidol]
percent of prepulse inhibition (mice [4]): significantly increased the percent of prepulse inhibition

Compound: des-^1Lys^18Arg^25,28Pro-h-amylin (CNTATCATQRLANFLVRSSNNFGPILPSTNVGSNTY) [human amylin analog of formula I]
amylin activity in vivo (treated test animals): provoking marked hyperlactemia followed by hyperglycemia

weight gain compared to vehicle-treated rats [5]: increased weight gain
baseline activity, agent alone (mice [6]): did affect baseline activity
Compound: CN1CCN(C2=Nc3cc(Cl)ccc3Nc3ccccc32)CC1 [clozapine]

Compound: COc1ccc(C2CNC(=O)C2)cc1OC1CCCC1 (centres unmarked) [rolipram]
relative time exploring the novel object (memory index), in words (mice [7]): increased the relative time exploring the novel object

baseline activity, agent alone (mice [6]): did not affect baseline activity
Compound: CC(C)C[C@H](NC(=O)[C@H](CC(N)=O)NC(=O)[C@H](CC(N)=O)NC(=O)[C@H](CO)NC(=O)[C@H](CO)NC(=O)[C@H](CCCNC(=N)N)NC(=O)[C@@H](NC(=O)[C@H](CC(C)C)NC(=O)[C@H](Cc1ccccc1)NC(=O)[C@H](CC(N)=O)NC(=O)[C@H](C)NC(=O)[C@H](CC(C)C)NC(=O)[C@H](CCCNC(=N)N)NC(=O)[C@H](CCC(N)=O)NC(=O)[C@@H](NC(=O)[C@H](C)NC(=O)[C@@H]1CSSC[C@H](NC(=O)[C@@H](N)CCCCN)C(=O)N[C@@H](CC(N)=O)C(=O)N[C@@H]([C@@H](C)O)C(=O)N[C@@H](C)C(=O)N[C@@H]([C@@H](C)O)C(=O)N1)[C@@H](C)O)C(C)C)C(=O)NCC(=O)N1CCC[C@H]1C(=O)N[C@H](C(=O)N[C@@H](CC(C)C)C(=O)N1CCC[C@H]1C(=O)N1CCC[C@H]1C(=O)N[C@H](C(=O)N[C@@H](CC(N)=O)C(=O)N[C@H](C(=O)NCC(=O)N[C@@H](CO)C(=O)N[C@@H](CC(N)=O)C(=O)N[C@H](C(=O)N[C@@H](Cc1ccc(O)cc1)C(N)=O)[C@@H](C)O)C(C)C)[C@@H](C)O)C(C)C [amylin]
